Read-outs that look alike come from different tables or passages of the source.
Tests used:
Format in all cases: in vivo
Plutella xylostella = Plutella xylostella (diamond back moth), artificial diet; conditions: 120 h, read-out: effect in at least one of the two categories (mortality or growth inhibition); for percent effect (mortality or growth inhibition) at 200 ppm: application rate 200 ppm, L2 larvae, 5 days after infestation
Procedure: (§1) 24-well microtiter plates with artificial diet were treated with aqueous test solutions prepared from 10'000 ppm DMSO stock solutions by pipetting. After drying, the plates were infested with L2 larvae (10 to 15 per well). The samples were assessed for mortality and growth inhibition in comparison to untreated samples 5 days after infestation.
(§2) The following compounds gave an effect of at least 80% in at least one of the two categories (mortality or growth inhibition) at an application rate of 200 ppm: […]

Thrips tabaci = Thrips tabaci (onion thrips): feeding/contact activity; conditions: 144 h
Procedure: (§3) Sunflower leaf discs were placed on agar in 24-well microtiter plates and sprayed with aqueous test solutions prepared from 10'000 ppm DMSO stock solutions. After drying the leaf discs were infested with a Thrips population of mixed ages. The samples were assessed for mortality 6 days after infestation.

Spodoptera littoralis = Spodoptera littoralis (Egyptian cotton leaf worm), sprayed cotton leaf discs; conditions: foliar, 72 h, read-out: control (mortality, anti-feeding effect, growth inhibition)
Procedure: Cotton leaf discs were placed onto agar in 24-well microtiter plates and sprayed with aqueous test solutions prepared from 10'000 ppm DMSO stock solutions. After drying the leaf discs were infested with five L1 larvae. The samples were assessed for mortality, anti-feeding effect, and growth inhibition in comparison to untreated samples 3 days after infestation. Control of Spodoptera littoralis by a test sample is given when at least one of the categories mortality, anti-feedant effect, and growth inhibition is higher than the untreated sample.

Diabrotica balteata = Diabrotica balteata (corn root worm), sprayed maize sprouts; conditions: 96 h, application rate 200 ppm, L2 larvae, 4 days after infestation, read-out: effect in at least one of the two categories (mortality or growth inhibition)
Procedure: as §1, with “Maize sprouts placed onto an agar layer in 24-well” for “24-well”, “plates” for “plates with artificial diet”, “spraying.” for “pipetting.”, “(6” for “(10”, “10” for “15”, “4” for “5”
as §2

Euschistus heros = Euschistus heros (neotropical brown stink bug), sprayed soybean leaves; conditions: 120 h, application rate 200 ppm, N2 nymphs, 5 days after infestation, read-out: effect in at least one of the two categories (mortality or growth inhibition)
Procedure: Soybean leaves on agar in 24-well microtiter plates were sprayed with aqueous test solutions prepared from 10'000 ppm DMSO stock solutions. After drying the leaves were infested with N2 nymphs. The samples were assessed for mortality and growth inhibition in comparison to untreated samples 5 days after infestation.
as §2

Tetranychus urticae = Tetranychus urticae (two-spotted spider mite): feeding/contact activity; conditions: 192 h, application rate 200 ppm, mixed population (mobile stages), 8 days after infestation, read-out: mortality
Procedure: as §3, with “Bean” for “Sunflower”, “discs” for “discs were placed”, “were” for “and”, “mite” for “Thrips”, “on mixed population (mobile stages) 8” for “6”

[1] = application rate 200 ppm, Thrips population of mixed ages, 6 days after infestation, read-out: mortality
[2] = application rate 200 ppm, L1 larvae, 3 days after infestation

CN(C)S(=O)(=O)N1C[C@@H](NC(=O)c2ccc(C3=NO[C@@](c4cc(Cl)cc(Cl)c4)(C(F)(F)F)C3)cc2Cl)CO1 [Compound A110, 2-chloro-4-[(5S)-5-(3,5-dichlorophenyl)-5-(trifluoromethyl)-4H-isoxazol-3-yl]-N-[(4R)-2-(dimethylsulfamoyl)isoxazolidin-4-yl]benzamide]
≥ 80%: percent effect (mortality or growth inhibition) at 200 ppm (Plutella xylostella) | mortality at 200 ppm (Thrips tabaci; [1]) | mortality at 200 ppm (Spodoptera littoralis; [2]) | percent effect (mortality or growth inhibition) at 200 ppm (Diabrotica balteata) | percent effect (mortality or growth inhibition) at 200 ppm (Euschistus heros) | mortality at 200 ppm (Tetranychus urticae)

CS(=O)(=O)N1CC(NC(=O)c2ccc(C3=NOC(c4cc(Cl)cc(Cl)c4)(C(F)(F)F)C3)cn2)CO1 (stereo not shown) [Compound A238]
≥ 80%: mortality at 200 ppm (Spodoptera littoralis; [2])

COC(=O)CN(C)S(=O)(=O)N1CC(NC(=O)c2ccc(C3=NO[C@@](c4cc(Cl)c(Cl)c(Cl)c4)(C(F)(F)F)C3)cc2C)CO1 (stereo partly drawn) [Compound A88, methyl 2-[methyl-[4-[[2-methyl-4-[(5S)-5-(3,4,5-trichlorophenyl)-5-(trifluoromethyl)-4H-isoxazol-3-yl]benzoyl]amino]isoxazolidin-2-yl]sulfonyl-amino]acetate]
≥ 80%: percent effect (mortality or growth inhibition) at 200 ppm (Plutella xylostella) | mortality at 200 ppm (Thrips tabaci; [1]) | mortality at 200 ppm (Spodoptera littoralis; [2]) | percent effect (mortality or growth inhibition) at 200 ppm (Diabrotica balteata) | percent effect (mortality or growth inhibition) at 200 ppm (Euschistus heros) | mortality at 200 ppm (Tetranychus urticae)

CS(=O)(=O)N1CC(NC(=O)c2ccc(C3=NOC(c4cc(Cl)cc(Cl)c4)(C(F)(F)F)C3)c3ncccc23)CO1 (stereo not shown) [Compound A56]
≥ 80%: percent effect (mortality or growth inhibition) at 200 ppm (Plutella xylostella) | mortality at 200 ppm (Spodoptera littoralis; [2])

Cc1cc(C2=NO[C@](c3ccc(C(F)(F)F)c(F)c3)(C(F)(F)F)C2)ccc1C(=O)N[C@@H]1CON(S(=O)(=O)N(C)C)C1 [Compound A171]
≥ 80%: percent effect (mortality or growth inhibition) at 200 ppm (Plutella xylostella) | mortality at 200 ppm (Thrips tabaci; [1]) | mortality at 200 ppm (Spodoptera littoralis; [2]) | percent effect (mortality or growth inhibition) at 200 ppm (Diabrotica balteata) | mortality at 200 ppm (Tetranychus urticae)

Cc1nc(C2=NOC(c3cc(Cl)cc(Cl)c3)(C(F)(F)F)C2)ccc1C(=O)NC1CON(S(C)(=O)=O)C1 (stereo not shown) [Compound A237]
≥ 80%: percent effect (mortality or growth inhibition) at 200 ppm (Plutella xylostella) | mortality at 200 ppm (Spodoptera littoralis; [2]) | percent effect (mortality or growth inhibition) at 200 ppm (Diabrotica balteata)

CNC(=O)CS(=O)(=O)N1C[C@H](NC(=O)c2ccc(C3=NO[C@@](c4cc(Cl)cc(Cl)c4)(C(F)(F)F)C3)cc2C)CO1 [Compound A201]
≥ 80%: percent effect (mortality or growth inhibition) at 200 ppm (Plutella xylostella) | mortality at 200 ppm (Spodoptera littoralis; [2]) | percent effect (mortality or growth inhibition) at 200 ppm (Diabrotica balteata) | percent effect (mortality or growth inhibition) at 200 ppm (Euschistus heros) | mortality at 200 ppm (Tetranychus urticae)

C=CS(=O)(=O)N1C[C@H](NC(=O)c2ccc(C3=NO[C@@](c4cc(Cl)cc(Cl)c4)(C(F)(F)F)C3)cc2C)CO1 [Compound A175]
≥ 80%: mortality at 200 ppm (Spodoptera littoralis; [2])

CNS(=O)(=O)N1C[C@H](NC(=O)c2ccc(C3=NO[C@@](c4ccc(C(F)(F)F)c(F)c4)(C(F)(F)F)C3)cc2C)CO1 [Compound A182]
≥ 80%: percent effect (mortality or growth inhibition) at 200 ppm (Plutella xylostella) | mortality at 200 ppm (Thrips tabaci; [1]) | mortality at 200 ppm (Spodoptera littoralis; [2]) | percent effect (mortality or growth inhibition) at 200 ppm (Diabrotica balteata) | mortality at 200 ppm (Tetranychus urticae)

Cc1cc(C2=NO[C@](c3cc(Cl)cc(Cl)c3)(C(F)(F)F)C2)ccc1C(=O)N[C@H]1CON(S(=O)(=O)CCBr)C1 [Compound A177, N-[(4R)-2-(2-bromoethylsulfonyl)-1,2-oxazolidin-4-yl]-4-[(5R)-5-(3,5-dichlorophenyl)-5-(trifluoromethyl)-4H-1,2-oxazol-3-yl]-2-methylbenzamide]
≥ 80%: percent control (mortality or growth inhibition) at 200 ppm (Plutella xylostella) | mortality at 200 ppm (Thrips tabaci) | mortality at 200 ppm (Spodoptera littoralis)

Cc1cc(C2=NOC(c3ccnc(F)c3)(C(F)(F)F)C2)ccc1C(=O)NC1CON(S(C)(=O)=O)C1 (stereo not shown) [Compound A54]
≥ 80%: percent effect (mortality or growth inhibition) at 200 ppm (Plutella xylostella) | mortality at 200 ppm (Spodoptera littoralis; [2]) | percent effect (mortality or growth inhibition) at 200 ppm (Diabrotica balteata) | percent effect (mortality or growth inhibition) at 200 ppm (Euschistus heros) | mortality at 200 ppm (Tetranychus urticae)

CS(=O)(=O)N1CC(NC(=O)c2cnc(C3=NOC(c4cc(Cl)cc(Cl)c4)(C(F)(F)F)C3)c3ccccc23)CO1 (stereo not shown) [Compound A239]
≥ 80%: percent effect (mortality or growth inhibition) at 200 ppm (Plutella xylostella) | mortality at 200 ppm (Thrips tabaci; [1]) | mortality at 200 ppm (Spodoptera littoralis; [2]) | percent effect (mortality or growth inhibition) at 200 ppm (Diabrotica balteata) | percent effect (mortality or growth inhibition) at 200 ppm (Euschistus heros)

CS(=O)(=O)N1CC(NC(=O)c2ccc(C3=NOC(c4cc(Cl)cc(Cl)c4)(C(F)(F)F)C3)cc2C#N)CO1 (stereo not shown) [Compound A47]
≥ 80%: mortality at 200 ppm (Spodoptera littoralis; [2])

Cc1cc(C2=NO[C@@](c3cc(Cl)c(Cl)c(Cl)c3)(C(F)(F)F)C2)ccc1C(=O)NC1CON(S(C)(=O)=O)C1 (stereo partly drawn) [Compound A26, 2-methyl-N-(2-methylsulfonylisoxazolidin-4-yl)-4-[(5S)-5-(3,4,5-trichlorophenyl)-5-(trifluoromethyl)-4H-isoxazol-3-yl]benzamide]
≥ 80%: percent effect (mortality or growth inhibition) at 200 ppm (Euschistus heros)

Cc1cc(C2=NOC(c3ccc(OC(F)(F)F)cc3)(C(F)(F)F)C2)ccc1C(=O)NC1CON(S(C)(=O)=O)C1 (stereo not shown) [Compound A53]
≥ 80%: percent effect (mortality or growth inhibition) at 200 ppm (Plutella xylostella) | mortality at 200 ppm (Spodoptera littoralis; [2]) | percent effect (mortality or growth inhibition) at 200 ppm (Diabrotica balteata) | mortality at 200 ppm (Tetranychus urticae)

Cc1cc(C2=NO[C@@](c3ccc(C(F)(F)F)c(F)c3)(C(F)(F)F)C2)ccc1C(=O)N[C@H]1CON(S(C)(=O)=O)C1 [Compound A170]
≥ 80%: percent effect (mortality or growth inhibition) at 200 ppm (Plutella xylostella) | mortality at 200 ppm (Thrips tabaci; [1]) | mortality at 200 ppm (Spodoptera littoralis; [2]) | percent effect (mortality or growth inhibition) at 200 ppm (Diabrotica balteata) | mortality at 200 ppm (Tetranychus urticae)

Cc1cc(C2=NOC(c3ccc(Br)cc3)(C(F)(F)F)C2)ccc1C(=O)NC1CON(S(C)(=O)=O)C1 (stereo not shown) [Compound A55]
≥ 80%: percent effect (mortality or growth inhibition) at 200 ppm (Plutella xylostella) | mortality at 200 ppm (Thrips tabaci; [1]) | mortality at 200 ppm (Spodoptera littoralis; [2]) | percent effect (mortality or growth inhibition) at 200 ppm (Diabrotica balteata) | mortality at 200 ppm (Tetranychus urticae)

Cc1cc(C2=NOC(c3cc(C(F)(F)F)ccn3)(C(F)(F)F)C2)ccc1C(=O)N[C@H]1CON(S(C)(=O)=O)C1 (stereo partly shown) [Compound A222]
≥ 80%: percent effect (mortality or growth inhibition) at 200 ppm (Plutella xylostella) | mortality at 200 ppm (Spodoptera littoralis; [2]) | percent effect (mortality or growth inhibition) at 200 ppm (Diabrotica balteata) | mortality at 200 ppm (Tetranychus urticae)

Cc1cc(Cl)cc(C2(C(F)(F)F)CC(c3ccc(C(=O)NC4CON(S(C)(=O)=O)C4)c(C)c3)=NO2)c1 (stereo not shown) [Compound A51]
≥ 80%: percent effect (mortality or growth inhibition) at 200 ppm (Plutella xylostella) | mortality at 200 ppm (Thrips tabaci; [1]) | mortality at 200 ppm (Spodoptera littoralis; [2]) | percent effect (mortality or growth inhibition) at 200 ppm (Diabrotica balteata) | mortality at 200 ppm (Tetranychus urticae)

C=CS(=O)(=O)N1C[C@@H](NC(=O)c2ccc(C3=NO[C@@](c4cc(Cl)c(F)c(Cl)c4)(C(F)(F)F)C3)cc2C)CO1 [Compound A193, 4-[(5S)-5-(3,5-dichloro-4-fluorophenyl)-5-(trifluoromethyl)-4H-1,2-oxazol-3-yl]-N-[(4R)-2-ethenylsulfonyl-1,2-oxazolidin-4-yl]-2-methylbenzamide]
≥ 80%: percent effect (mortality or growth inhibition) at 200 ppm (Plutella xylostella) | mortality at 200 ppm (Thrips tabaci; [1]) | mortality at 200 ppm (Spodoptera littoralis; [2]) | mortality at 200 ppm (Tetranychus urticae)

— patent publication US10588317B2, “Isoxazoline-substituted benzamides and analogues as insecticides” (priority 2015, dated 2020)
